Experimental data from ChEMBL document CHEMBL5131385, “Novel piperazine based benzamide derivatives as potential anti-glioblastoma agents inhibiting cell proliferation and cell cycle progression” (Eur J Med Chem, 2022).
Active and inactive are the calls of the source. The calls are words filed in the database; no cut-off is given here.

Tests used:
[1] = AUC (0 to t) in Sprague-Dawley rat brain at 100 mg/kg, ip and measured upto 240 mins by LC-MS analysis; format: ADME, organism-based; design: dose 100 mg/kg, time < 240 min, route ip
U-251 [2] = assay: Induction of apoptosis in human U-251 cells assessed as early apoptotic cells at 1.50 uM incubated for 72 hrs by Annexin V-FITC/PI staining based flow cytometry method (Rvb =1.96 %); format: functional; conditions: dose 1.5 µM
U-251 [3] = assay: Upregulation of p16 INK4a gene expression in human U-251 cells at 0.075 to 1.2 uM measured after 72 hrs by western blot analysis; format: functional, cell-based; conditions: dose 0.075-1.2 µM
U-251 [4] = assay: Induction of apoptosis in human U-251 cells assessed as viable cells at 1.50 uM incubated for 72 hrs by Annexin V-FITC/PI staining based flow cytometry method (reference value: 96.22 %); format: functional; conditions: read-out: Activity
U-87MG ATCC [5] = assay: Downregulation of CDK4 gene expression in human U-87 MG cells at 0.075 to 1.2 uM measured after 72 hrs by western blot analysis; format: functional, cell-based; conditions: dose 0.075-1.2 µM
[6] = AUC (0 to t) in Sprague-Dawley rat plasma at 100 mg/kg, ip and measured upto 240 mins by LC-MS analysis; format: ADME, organism-based; design: dose 100 mg/kg, time < 240 min, route ip
[7] = Acute toxicity in Kunming mouse assessed as pathological changes in lung at 600 mg/kg, ip measured after 24 hrs by H and E staining analysis; format: organism-based; conditions: in vivo
C6 = assay: Antiproliferative activity against rat C6 cells assessed as inhibition of cell proliferation measured after 72 hrs by CCK8 assay; format: functional, cell-based; conditions: C6, 72 h
[8] = Acute toxicity in Kunming mouse assessed as pathological changes in spleen at 600 mg/kg, ip measured after 24 hrs by H and E staining analysis; format: organism-based; conditions: in vivo
U-251 [9] = assay: Downregulation of CDK4 gene expression in human U-251 cells at 0.075 to 1.2 uM measured after 72 hrs by western blot analysis; format: functional, cell-based; conditions: dose 0.075-1.2 µM
[10] = Induction of apoptosis in human U-87 MG cells assessed as necrotic cells at 0.075 uM incubated for 72 hrs by Annexin V-FITC/PI staining based flow cytometry method (reference value: 0.21 %); format: functional, U-87MG ATCC
[11] = Acute toxicity in Kunming mouse assessed as pathological changes in kidney at 600 mg/kg, ip measured after 24 hrs by H and E staining analysis; format: organism-based; conditions: in vivo
[12] = Ratio of drug level in Sprague-Dawley rat brain to plasma at 100 mg/kg, ip measured after 240 mins by LC-MS analysis; format: ADME, organism-based; conditions: read-out: logBB (converted)
U-87MG ATCC [13] = assay: Induction of apoptosis in human U-87 MG cells assessed as formation of spindle shaped cells at 0.075 to 1.20 uM measured after 72 hrs by Giemsa staining based microscopic analysis; format: functional, cell-based; conditions: dose 0.075-1.2 µM
U-251 [14] = assay: Induction of apoptosis in human U-251 cells assessed as late apoptotic cells at 1.50 uM incubated for 72 hrs by Annexin V-FITC/PI staining based flow cytometry method (Rvb =1.31 %); format: functional; conditions: dose 1.5 µM
U-87MG ATCC [15] = assay: Antiinvasive activity against human U-87 MG cells assessed as inhibition of cell invasion at 0.125 to 0.50 uM and measured after 24 hrs by transwell invasion assay; format: functional, cell-based; conditions: dose 0.125-0.5 µM, DDE = dose-dependent effect
U-87MG ATCC [16] = assay: Induction of apoptosis in human U-87 MG cells assessed as decrease in cell size at 0.075 to 1.20 uM measured after 72 hrs by Giemsa staining based microscopic analysis; format: functional; conditions: dose 0.075-1.2 µM
U-251 [17] = assay: Induction of cell cycle arrest in human U-251 cells assessed as decrease in accumulation at G2/M phase at 0.75 to 3 uM measured after 72 hrs by flow cytometry; format: functional, cell-based; conditions: dose 0.75-3 µM, DDE = dose-dependent effect
U-87MG ATCC [18] = assay: Induction of apoptosis in human U-87 MG cells assessed as enlargement of intracellular space at 0.075 to 1.20 uM measured after 72 hrs by Giemsa staining based microscopic analysis; format: functional, cell-based; conditions: dose 0.075-1.2 µM
[19] = Induction of apoptosis in human U-87 MG cells assessed as viable cells at 0.075 uM incubated for 72 hrs by Annexin V-FITC/PI staining based flow cytometry method (reference value: 96.84 %); format: functional, U-87MG ATCC; conditions: read-out: Activity
U-87MG ATCC [20] = assay: Downregulation of pRb gene expression in human U-87 MG cells at 0.075 to 1.2 uM measured after 72 hrs by western blot analysis; format: functional, cell-based; conditions: dose 0.075-1.2 µM
U-251 [21] = assay: Downregulation of CDK6 gene expression in human U-251 cells at 0.075 to 1.2 uM measured after 72 hrs by western blot analysis; format: functional, cell-based; conditions: dose 0.075-1.2 µM
[22] = Induction of apoptosis in human U-87 MG cells assessed as early apoptotic cells at 0.075 uM incubated for 72 hrs by Annexin V-FITC/PI staining based flow cytometry method (reference value: 2.53 %); format: functional, U-87MG ATCC
U-87MG ATCC [23] = assay: Induction of apoptosis in human U-87 MG cells assessed as morphological changes at 0.075 to 1.20 uM measured after 72 hrs by Giemsa staining based microscopic analysis; format: functional, cell-based; conditions: dose 0.075-1.2 µM
U-87MG ATCC [24] = assay: Antiproliferative activity against human U-87 MG cells assessed as inhibition of cell proliferation and measured upto 72 hrs by CCK8 assay; format: functional, cell-based; conditions: TDE = time-dependent effect
U-251 [25] = assay: Induction of apoptosis in human U-251 cells assessed as decrease in cell size at 0.375 to 6 uM measured after 72 hrs by Giemsa staining based microscopic analysis; format: functional; conditions: dose 0.375-6 µM
U-251 [26] = assay: Antiproliferative activity against human U-251 cells assessed as inhibition of cell proliferation upto 72 hrs by CCK8 assay; format: functional, cell-based; conditions: TDE = time-dependent effect
[27] = Cmax in Sprague-Dawley rat plasma at 100 mg/kg, ip and measured upto 240 mins by LC-MS analysis; format: ADME, organism-based; design: dose 100 mg/kg, time < 240 min, route ip
U-87MG ATCC [28] = assay: Antimigratory activity in human U-87 MG cells assessed as inhibition of cell migration by measuring wound closure at 0.125 to 0.50 uM and measured after 24 hrs by transwell migration assay; format: functional, cell-based; conditions: dose 0.125-0.5 µM, DDE = dose-dependent effect
U-251 [29] = assay: Induction of apoptosis in human U-251 cells assessed as morphological changes at 0.375 to 6 uM measured after 72 hrs by Giemsa staining based microscopic analysis; format: functional, cell-based; conditions: dose 0.375-6 µM
U-87MG ATCC [30] = assay: Antitumor activity against human U-87 MG cells xenografted in BALB/c mouse assessed as decrease in tumor volume at 10 mg/kg,ip bid for 1 month; format: functional, organism-based; conditions: time 1.0 months
U-251 [31] = assay: Induction of apoptosis in human U-251 cells assessed as early apoptotic cells at 0.375 uM incubated for 72 hrs by Annexin V-FITC/PI staining based flow cytometry method (Rvb =1.96 %); format: functional
[32] = Cmax in Sprague-Dawley rat brain at 100 mg/kg, ip and measured upto 240 mins by LC-MS analysis; format: ADME, organism-based; design: time < 240 min, dose 100 mg/kg, route ip
U-87MG ATCC [33] = assay: Antiproliferative activity against human U-87 MG cells assessed as reduction in colony number at 0.125 to 0.5 uM for 2 to 3 weeks by crystal violet staining based plate clone formation assay; format: functional, cell-based; conditions: dose 0.125-0.5 µM, time 2-3 weeks, DDE = dose-dependent effect
[34] = Induction of apoptosis in human U-87 MG cells assessed as early apoptotic cells at 1.20 uM incubated for 72 hrs by Annexin V-FITC/PI staining based flow cytometry method (reference value: 2.53 %); format: functional, U-87MG ATCC; conditions: dose 1.2 µM
[35] = Antitumor activity against human U-87 MG cells xenografted in BALB/c mouse assessed as tumor growth inhibition at 10 mg/kg,ip bid for 1 month; format: functional, U-87MG ATCC; conditions: 730 h, time 1 months, read-out: TGI

What does the source list for COCCN1CCN(c2ccc(F)cc2C(=O)Nc2ccc(CNC(=O)OCc3cccnc3)cc2)CC1?
AUC(0-t) at 4 h [1]: 97000 ng·h/mL; Activity (U-251 [2]): 2.9%; Activity (U-251 [3]): Active; viability at 1.5 µM (U-251 [4]): 93.7%; Activity (U-87MG ATCC [5]): Active; AUC(0-t) at 4 h [6]: 90400 ng·h/mL; Activity [7]: Non-Toxic; IC50 (C6): 0.15 µM; Activity [8]: Non-Toxic; Activity (U-251 [9]): Active; Activity [10]: 0.33%; Activity [11]: Non-Toxic; Kp at 4 h [12]: 1.07; Activity (U-87MG ATCC [13]): Active; Activity (U-251 [14]): 2.47%; Activity (U-87MG ATCC [15]): Dde; Activity (U-87MG ATCC [16]): Active; Activity (U-251 [17]): Dde; Activity (U-87MG ATCC [18]): Active; viability at 0.075 µM [19]: 96.5%; Activity (U-87MG ATCC [20]): Active; Activity (U-251 [21]): Active; Activity [22]: 2.76%; Activity (U-87MG ATCC [23]): Active; Activity (U-87MG ATCC [24]): Tde; Activity (U-251 [25]): Active; Activity (U-251 [26]): Tde; Cmax [27]: 71.7 µg/mL; Activity (U-87MG ATCC [28]): Dde; Activity (U-251 [29]): Active; Activity (U-87MG ATCC [30]): Active; Activity (U-251 [31]): 1.9%; Cmax [32]: 92.5 µg/mL; Activity (U-87MG ATCC [33]): Dde; Activity [34]: 17.92%; inhibition in vivo at 10 mg/kg [35]: 70.5%
